Results taken from patent US6403635B1, “Method of treating atherosclerosis or restenosis using microtubule stabilizing agent” (The United States of America as represented by the …, priority 1993, dated 2002).

Key:
[1] = test system: Vascular Smooth Muscle Cells (VSMCs); assay: Chemoinvasion (Boyden chamber) assay, PDGF-BB as attractant; format: cell-based, rat
Protocol: (§1) Vascular Smooth Muscle Cells (VSMCs) were isolated by collagenase/elastase enzymatic digestion of the medial layers of the rat aorta obtained from 6 month old Wistar rats. The cells were maintained in culture with 10% fetal calf serum, high glucose DMEM, and amino acid supplement. Cell cultures were maintained at 37° C. in 5% CO2.
(§2) Chemoinvasion (Boyden chamber) assays were performed using modified Boyden chamber (Albini, et al. (1987) Cancer Res., 47:3239-3245), comprising an upper chamber separated from a lower chamber by a porous PVPF filter. PVPF filters (8 μm pore diameter, Nucleopore Filters, Pleasanton, Calif.) were coated and air dried consecutively with solutions containing 100 μg/ml type I collagen, 5 μg/ml fibronectin, and 5 μg reconstituted basement membrane (produced from the Englebreth-Holm-Swarm tumor (Kleinman, et al. (1986) Biochemistry, 25:312-318), producing a continuous 10 μm thick coating of matrix material. Boyden chambers were assembled by adding 10 ng/ml PDGF BB in DMEM to the lower (chemoattractant) chamber. Cells (approximately 200,000) suspended in DMEM containing 0.1% BSA were then added to the upper chamber. […] The chambers were then incubated for 4 hours at 37° C. in a 5% CO2 atmosphere. At the end of the incubation period, the cells were fixed and stained with hematoxylin and eosin. The cells on the upper surface (non-invaders) were mechanically removed and the cells on the underside of the filter (invaders) were counted under 400× magnification (four random fields were counted per filter and all experiments were run in triplicate, and each triplicate assay was repeated at least three times on separate occasions using different VSMC preparations). Chemotaxis was assayed in analogous fashion in the Boyden chambers described above, except that the reconstituted basement membrane was omitted.
as §1, with “VSMC's” for “Vascular Smooth Muscle Cells (VSMCs)”, “collagense/elastase” for “collagenase/elastase”
Chemoinvasion assays were performed using a modified Boyden chamber, consisting of an upper chamber separated from a lower chamber by a porous PVPF filter. PVPF filters (8 μm pore diameter, Nucleopore Filters Pleasanton, Calif.) were coated and air dried consecutively with solutions containing 100 μg/ml type I collagen, […] fibronectin, and 5 μg reconstituted basement membrane (produced from the Englebreth-Holm-Swarm tumor), producing a continuous 10 μm thick coating of matrix material. Boyden chambers were assembled with PDGF-BB 10 ng/ml in DMEM in the lower (chemoattractant) chamber, then cells (approximately 200,000) suspended in DMEM containing 0.1% BSA were added to the upper chamber. Some of the cells used in these assays were pretreated 18 hours with deuterium oxide (25%, 50%, or 75% v/v substitution for H2O) in culture. In the deuterium oxide-treated groups, ^2H2O substituted DMEM (v/v) was added to the upper and lower chambers at the same concentration as that used for pretreatment. The chambers were then incubated for 4 hours at 37° C. in a humidified 5% CO2 atmosphere. […] After the cells on the upper surface of the filter (non-invaders) were mechanically removed, the cells on the underside (invaders) were counted under 400 X magnification (four random fields were counted per filter and all experiments were run in triplicate).

VSMC [2] = assay: Chemotaxis assay (Boyden chamber without basement membrane proteins), PDGF-BB as attractant; format: cell-based, rat; settings: filter coated only with fibronectin and collagen I
Protocol: as §2, with “Chemotaxis was assayed in analogous fashion in the Boyden chambers described above, except that the reconstituted basement membrane was omitted.” left out

[3] = test system: VSMC collagenase secretion; assay: Gelatinase zymography of Boyden assay supernatants; format: cell-based, rat; settings: taxol range 30 pM to 100 nM
Protocol: Gelatinase zymography was performed on the superannuates removed after the 4 hour conclusion of the Boyden assays described above. Gelatin-degrading proteinases secreted into the media by VSMCs were analyzed by non-reducing sodium dodecyl sulfate-polyacrylamide gel electrophoresis in 10% polyacrylamide gels containing 0.1% (w/v) gelatin. Following electrophoresis, the gelatinases were renatured by incubating the gel for 30 min. at 23° C. in 2.5% (v/v) Triton X-100 followed by 18 hour incubation at 37° C. in 0.2 M NaCl, 5 mM CaCl2 0.02% Brij 35 (w/v), 50 mM Tris-HCI (pH 7.6). The gels were stained for 90 minutes with 0.5% Coomassie Brilliant Blue G-250 and destained with 10% acetic acid, 40% methanol. Gelatinolytic activity was indicated by a clear band against the background of the blue-stained gelatin.

c-fos mRNA expression = assay: PDGF-BB-stimulated c-fos mRNA expression in cultured VSMC; format: cell-based, rat
rat carotid artery = assay: Balloon catheter injury of the rat carotid artery (restenosis model); format: in vivo, Wistar rats
Protocol: Under a protocol approved by the National Institute on Aging Animal Care and use Committee, 6 month Wistar rats from the GRC colony wee anesthetized with 20 mg/kg body weight phenobarbital, 2 mg/kg body weight ketamine, and 4 mg/kg body weight xylazine intraperitoneally. The left external carotid artery was cannulated with 2-French Fogarty embolectomy catheter, inflated with saline and passed three times up and down the common carotid artery to produce a distending, deendothelializing injury. […] Cross sections of the carotids were mounted on microscope slides and stained with hematoxylin and eosin stain. The image of the carotid artery was projected onto a digitizing board and the cross sectional areas of the intima and the media were measured. As indicated in the prior art (Ferns, G. A. A. et al. (1991) Science, 253:1129-1132) the rat carotid artery injury model of restenosis can be useful in the study of human restenosis, and indicate potential therapeutic action in humans.

polymerized tubulin = assay: Microtubule bundling in cultured VSMC (anti-tubulin antibody labelling); format: cell-based, rat
Description: In deuterium oxide-treated cells, ^2H2O (v/v) was substituted for water (H2O) in the preparation of the DMEM from concentrated stock. […], cells were fixed in 3.7% formalin, premeabilized with 1% Triton X-100, and polymerized tubulin was labelled with mouse anti-β-tubulin antibody (SMI 62 monoclonal antibody to polymerized β-tubulin, Paragon Biotec, Inc., Baltimore, Md.). […] Representative light photomicrographs from (FIG. 5A) control, and (FIG. 5B) 75% deuterium oxide treated VSMCs are shown in FIGS. 5A-5B.

VSMC [4] = assay: [3H]thymidine incorporation in cultured VSMC
VSMC [5] = assay: Bromodeoxyuridine (BrDU) incorporation in cultured VSMC; format: cell-based, rat; settings: various 2H2O concentrations
Protocol: Incorporation of the thymidine analog, bromodeoxyuridine (BrDU) was measured to determine the effect of deuterium oxide on VSMC DNA synthesis. […] Following 20 hr incubation in 10% FCS+DMEM at various ^2H2O concentrations, 10 μM BrDU was added and the incubation continues for an additional 4 hr. […] The cells were incubated for 2 hr with 1N HCl to denature the DNA, and subsequently washed 4 times in PBS. Mouse monoclonal BrDU antibody (Boehringer Mannheim) in 2% BSA-PBS was incubated with cells for 1 hr. After PBS wash, goat anti-mouse antibody conjugated with alkaline phosphatase was added. Cell nuclei containing BrDU substituted for thymidine stained red with alkaline phosphatase substrate, while all other nuclei stained blue. The fraction of BrDU-positive nuclei was compared between control (defined as 100%) and that of the deuterium oxide-pretreated groups.

[6] = cross sectional area, 2 mg/kg i.p., 11 days after injury

| IC50 ([1]; Rattus norvegicus, VSMC, 18 h pretreatment, PDGF-BB attractant, 4 h incubation, read-out: half-maximal inhibitory concentration, VSMC invasion) [nM] | level of VSMC collagenase secretion compared to control [3] | IC50 (c-fos mRNA expression; Rattus norvegicus, cultured VSMC, read-out: half-maximal inhibitory concentration, PDGF-BB-stimulated c-fos mRNA expression) [nM] | IC50 (VSMC [4]; Rattus norvegicus, VSMC, read-out: half-maximal inhibitory concentration, VSMC [3H]thymidine incorporation) [nM] | SMILES | inhibition of VSMC invasion at 30 pM ([1]; 30 pM (the lowest dose used)) | inhibition of VSMC invasion at 100 nM ([1]; 100 nM taxol) | outcome of chemotaxis assay compared with chemoinvasion assay (VSMC [2]) | inhibition of c-fos mRNA expression above 20 nM (c-fos mRNA expression; above 20 nM taxol) | reduction of neointimal area compared to vehicle treated animals (rat carotid artery; 2 mg/kg i.p. once daily, 11 days after injury) [%] | Intima (rat carotid artery; [6]) [mm^2] | Media (rat carotid artery; [6]) [mm^2] | I/M (rat carotid artery; intima/media ratio, 2 mg/kg i.p., 11 days after injury) | discernible neointima in taxol-treated animals (rat carotid artery; several of the taxol-treated animals, denuded endothelium present) | microtubule bundling in VSMC's cultured on plastic (polymerized tubulin; 0.1, 1, 10 nM taxol, 18-hour pre-treatment) | inhibition of [3H]thymidine incorporation at 1 nM (VSMC [4]; 1 nM taxol) | inhibition of [3H]thymidine incorporation at 100 nM (VSMC [4]; 100 nM taxol) | inhibition of VSMC Boyden chamber invasion at 75% 2H2O ([1]; 75% 2H2O) | half-maximal inhibition of PDGF-mediated VSMC Boyden chamber invasion ([1]; 18 h pretreatment, v/v substitution for H2O) [% 2H2O] | effect on cultured VSMC proliferation and DNA synthesis (BrDU incorporation) (VSMC [5]) | microtubule hyperpolymerization in cultured VSMCs (polymerized tubulin; 18 hours with 25%, 50% or 75% deuterium oxide) |
| --- | --- | --- | --- | --- | --- | --- | --- | --- | --- | --- | --- | --- | --- | --- | --- | --- | --- | --- | --- | --- |
| 0.5 | did not vary significantly | 1 | 5 | CC(=O)O[C@H]1C(=O)[C@@]2(C)[C@H]([C@H](OC(=O)c3ccccc3)[C@]3(O)C[C@H](OC(=O)[C@H](O)[C@@H](NC(=O)c4ccccc4)c4ccccc4)C(C)=C1C3(C)C)[C@]1(OC(C)=O)CO[C@@H]1C[C@@H]2O [Taxol] | significant inhibition | essentially complete inhibition | identical outcome | essentially complete inhibition | 70 | 0.03 ± 0.01 | 0.16 ± 0.02 | 0.18 ± 0.04 | virtually no discernible neointimal | dose-dependent microtubule bundling | significant inhibition | essentially complete inhibition |  |  |  |  |
|  |  |  |  | [2H]O[2H] [deuterium oxide] |  |  |  |  |  |  |  |  |  |  |  |  | nearly complete inhibition | 25 | inhibited cultured VSMC proliferation and DNA synthesis in a dose-dependent fashion | dose-dependent microtubule hyperpolymerization |
